Results published in patent publication US20180099023A1, “METHODS OF TREATING IRON OVERLOAD” (La Jolla Pharmaceutical Company, priority 2016, published 2018).

How the values were obtained:
Type in all cases: in vivo, human
serum iron [1] = assay: Hepcidin administration in healthy subjects (Example 3)
Protocol: This study enrolled 32 healthy adult subjects in 4 dose groups of 8 subjects per cohort, with 6 subjects assigned to hepcidin treatment and 2 subjects assigned to placebo in each cohort. The starting dose was 5 mg of hepcidin or placebo; subsequent dose groups received 10 mg, 20 mg, and 30 mg, respectively. Subjects received between one and three 1-mL subcutaneous (SC) injections to deliver the desired dose level. Hepcidin concentration was either 5 mg/mL or 10 mg/mL. For data analysis purposes, placebo subjects for all cohort groups were pooled.

serum iron [2] = assay: Serum iron after a single subcutaneous dose of hepcidin in patients (Example 1)
Text: Patients were recruited for a multi-day study to observe serum iron levels following administration of hepcidin. All patients who were recruited had either refractory or hemolytic anemia or hemochromatosis. Patients are divided into cohorts and subsequently treated with hepcidin. Treatment consisted of a single subcutaneous (SC) dose of hepcidin on Day 1. Dose escalation with new cohorts occurred only after the patients at each dose level had been observed for a minimum of 3 days and no drug related toxicity had been observed. The starting dose level was 1 mg given via SC injection on Day 1. Doses ranged from 1 mg to 30 mg. Patient cohorts and dosing can be found in Table 1:
Patients were admitted to the research unit the day before the administration of study drug and discharged following assessments 48 hours post dose. Serum iron, ferritin, transferrin, total iron binding capacity, and unsaturated iron binding capacity were measured on Day 1(baseline) and Day 7 (end of study). Serum iron was also measured at 2, 4, 8, 24, and 48 hours post dosing.

serum iron [3] = assay: Hepcidin administration in patients at risk for iron overload disorders (Example 2)
Protocol: Eighteen patients at risk for iron overload disorders (i.e., refractory or hemolytic anemia or hemochromatosis) received one or two 1-mL subcutaneous injections to achieve the desired dose level (1 mg, 5 mg, 10 mg, 20 mg, or 30 mg). Hepcidin concentration ranged from 1 to 15 mg/mL.

[4] = Baseline (pre-dose) to Day 8/End of Study

In the case of “hepcidin: 25-amino acid peptide with the amino acid sequence set forth in SEQ ID NO:1 (DTHFPICIFCCGCCHRSKCGMCCKT)”, the “Unsaturated iron binding capacity (UIBC) change from baseline” value (serum iron [1]; Day 8) is reported as “no trends in changes from baseline”, the “Ferritin change from baseline” value (serum iron [1]; Day 8, all treatment groups) is reported as “increased” and the “TSAT % change from baseline” value (serum iron [1]; Day 8, all treatment groups) is reported as “increased”. The “total iron binding capacity (TIBC) change from baseline” value (serum iron [1]; Day 8, all treatment groups) was “increased”, the “transferrin change from baseline” value (serum iron [1]; Day 8, all treatment groups) was “increased” and the anti-drug antibodies (serum iron [1]; healthy subjects) was “No anti-drug antibodies were detected”. The “maximum reduction in serum iron, 20 mg versus 30 mg” value (serum iron [1]; healthy subjects) was “no apparent difference”, the “time for serum iron levels to return to baseline” value (serum iron [1]; healthy subjects) was under 48 h and the “dose response of serum iron reduction” value (serum iron [1]; healthy subjects, 5 to 30 mg) was “larger reductions in serum iron generally associated with increases in dose up to 20 mg”. For the same substance, the “Percent Change in Serum Iron from Baseline to Hour 8” value (“Percent Change in Serum Iron” below) (serum iron [2]; 1 mg single SC dose, n = 3, patients with refractory or hemolytic anemia or hemochromatosis) was −14.2% (p = 0.203), the “dose response of serum iron reduction” value (serum iron [2]; 1 mg to 20 mg, FIG. 1, p-0.009 for dose response) was “dose-dependent, statistically significant reduction in serum iron” and the “Percent Change in Serum Iron” value (serum iron [2]; 5 mg single SC dose, n = 3, patients with refractory or hemolytic anemia or hemochromatosis) was −26.7% (p = 0.380). The “Percent Change in Serum Iron” value (serum iron [2]; 10 mg single SC dose, n = 3, patients with refractory or hemolytic anemia or hemochromatosis) was −45.5% (p = 0.077), the “reduction of serum iron from baseline to hour 8” value (serum iron [2]; 20 mg dose level, p=0.001) was 55.7% and the “Percent Change in Serum Iron” value (serum iron [2]; 20 mg single SC dose, n = 6, patients with refractory or hemolytic anemia or hemochromatosis) was −55.7% (p = 0.001). The “reduction of serum iron from baseline to the end of day 7” value (serum iron [2]; subjects administered 1 mg, 5 mg, 10 mg or 20 mg, serum iron had not returned to baseline through day 7) was 18.0%, the serum iron rebound (serum iron [2]; subjects administered at least 30 mg) was “rebound effect which resulted in above-baseline serum iron levels within 48 hours of treatment” and the “dose response of serum iron decrease” value (serum iron [3]; 1 mg to 30 mg SC) was “greater decrease in serum iron at higher doses”. The “Mean maximum percentage reduction in serum iron” value (serum iron [3]; 20-mg dose group, 8 hours post-dose) was 58%, the “TSAT % level change” value (serum iron [3]; [4]) was “Decreases” and the ferritin level change (serum iron [3]; [4]) was “Decreases”. For the same substance, the “total iron binding capacity (TIBC) change” value (serum iron [3]; [4]) was “Decreases”, the transferrin level change (serum iron [3]; [4]) was “Decreases” and the “serum iron levels compared to baseline” value (serum iron [3]; all five dose groups (1, 5, 10, 20, 30 mg SC)) was “decrease in serum iron levels compared to baseline was generally observed”. The “duration of serum iron reduction” value (serum iron [3]; most patients) was “sustained up to Day 8 in most patients” and the anti-drug antibodies (serum iron [3]; patients at risk for iron overload disorders) was “No anti-drug antibodies were detected”.
